The record followed here is article PMC8410034, “A variant of ASIC2 mediates sodium retention in nephrotic syndrome” (JCI Insight, 2021).

One assay addresses T1, ASIC2a (Rattus norvegicus, UniProt Q62962).
T1 construct: gene Asic2; full-length, expressed alone in X. laevis oocytes (3 ng cRNA, pGH19); homotrimer
T1 sequence (Q62962 1-512): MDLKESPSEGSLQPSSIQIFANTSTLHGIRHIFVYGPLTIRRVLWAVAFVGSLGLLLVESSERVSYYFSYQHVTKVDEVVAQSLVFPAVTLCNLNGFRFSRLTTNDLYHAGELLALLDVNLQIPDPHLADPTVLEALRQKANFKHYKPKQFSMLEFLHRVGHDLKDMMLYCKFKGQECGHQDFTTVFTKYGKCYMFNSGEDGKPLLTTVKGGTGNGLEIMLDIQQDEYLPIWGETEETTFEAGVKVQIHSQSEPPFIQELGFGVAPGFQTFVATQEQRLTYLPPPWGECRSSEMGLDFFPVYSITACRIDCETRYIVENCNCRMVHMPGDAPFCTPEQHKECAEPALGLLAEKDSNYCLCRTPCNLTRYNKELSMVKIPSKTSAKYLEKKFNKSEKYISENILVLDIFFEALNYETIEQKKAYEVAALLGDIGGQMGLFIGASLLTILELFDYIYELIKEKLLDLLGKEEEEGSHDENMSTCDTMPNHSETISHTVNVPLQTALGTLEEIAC
In words: two-electrode voltage clamp, X. laevis oocytes. It is filed as cell-based. To be noted: acid-induced (pH 4) plateau current, -70 mV.

The target of the next assay is T2, ASIC2a/t-ASIC2b (Rattus norvegicus, UniProt A0A0G3F2N6+Q62962).
T2 construct: gene Asic2; X. laevis oocytes injected with 3 ng Asic2a + 6 ng Asic2b-type cRNA; t-ASIC2b lacks first 71 N-terminal residues; heterotrimer, stoichiometry unknown (mix with 0, 1 or 2 t-ASIC2b)
T2 sequence (A0A0G3F2N6 1-492): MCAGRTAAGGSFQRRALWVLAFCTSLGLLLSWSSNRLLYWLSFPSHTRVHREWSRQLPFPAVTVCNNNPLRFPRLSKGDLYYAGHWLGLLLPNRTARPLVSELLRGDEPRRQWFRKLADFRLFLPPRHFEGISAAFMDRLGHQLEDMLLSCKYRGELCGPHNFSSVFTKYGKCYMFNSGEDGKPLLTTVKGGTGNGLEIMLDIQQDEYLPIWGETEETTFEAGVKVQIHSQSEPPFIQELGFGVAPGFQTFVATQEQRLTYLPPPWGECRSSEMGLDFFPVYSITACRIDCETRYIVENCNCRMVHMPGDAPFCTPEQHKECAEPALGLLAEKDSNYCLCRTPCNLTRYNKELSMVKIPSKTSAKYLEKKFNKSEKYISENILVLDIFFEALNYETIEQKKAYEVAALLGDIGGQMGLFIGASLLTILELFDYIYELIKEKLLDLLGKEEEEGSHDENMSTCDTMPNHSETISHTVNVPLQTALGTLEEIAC
T2 sequence (Q62962 1-563 isoform Q62962-2): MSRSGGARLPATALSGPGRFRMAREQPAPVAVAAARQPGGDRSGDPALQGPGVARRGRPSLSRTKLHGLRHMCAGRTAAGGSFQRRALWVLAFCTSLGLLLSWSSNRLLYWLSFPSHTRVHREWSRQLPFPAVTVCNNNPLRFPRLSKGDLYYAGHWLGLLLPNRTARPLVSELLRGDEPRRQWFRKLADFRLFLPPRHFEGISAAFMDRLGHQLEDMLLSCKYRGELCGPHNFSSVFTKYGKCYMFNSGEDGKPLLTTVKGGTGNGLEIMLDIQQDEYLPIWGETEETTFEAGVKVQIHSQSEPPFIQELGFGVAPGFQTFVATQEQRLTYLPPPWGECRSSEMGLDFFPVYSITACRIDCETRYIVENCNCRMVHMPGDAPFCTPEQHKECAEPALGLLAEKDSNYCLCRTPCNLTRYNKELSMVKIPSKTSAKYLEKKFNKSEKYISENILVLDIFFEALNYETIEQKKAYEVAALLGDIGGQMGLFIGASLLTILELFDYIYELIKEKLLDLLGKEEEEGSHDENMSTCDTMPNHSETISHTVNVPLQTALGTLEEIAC
Put plainly: two-electrode voltage clamp, X. laevis oocytes. The format is cell-based. (In general: Two-electrode voltage clamp is typically applied to oocytes expressing channels or transporters.)

As a reminder, the IC50 is the concentration at which inhibition is half-maximal. Higher therefore signals lower potency. `N=C(N)NC(=O)c1nc(Cl)c(N)nc1N` [amiloride]: on ASIC2a, the “% inhibition at 100 μM” value was “did not alter significantly the apparent low sensitivity of ASIC2a to amiloride”. The IC50 on ASIC2a/t-ASIC2b is about 50 µM.
